Source: ChEMBL document CHEMBL1201862, “PubChem BioAssay data set” (2004)
Activity calls are given as the source filed them.

How the values were obtained:
[1] = biological target: DNA dC->dU-editing enzyme APOBEC-3A (Homo sapiens, UniProt P31941); assay: A3A deaminase inhibition for selectivity – biochemical, dose response (AID 504722); assay type: functional
[2] = biological target: DNA dC->dU-editing enzyme APOBEC-3G (Homo sapiens, UniProt Q9HC16); assay: Dose Response confirmation of small molecule APOBEC3G DNA Deaminase Inhibitors via a fluorescence-based single-stranded DNA deaminase assay. [Related pubchem assays (depositor defined):AID493012, AID493028]; assay type: functional
[3] = biological target: T1, Beta-galactosidase (Escherichia coli, UniProt Q8VNN2); assay: PubChem AID 485352; assay type: functional
[4] = biological target: T2, Type-1 angiotensin II receptor (Homo sapiens, UniProt P30556); assay: antagonism of angiotensin II type 1 receptor – cell-based, uHTS hits, selectivity assay for APJ receptor antagonist project, dose response (AID 463214); assay type: functional;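 further: antagonist potency against angiotensin II stimulated AT1 response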
T2 sequence (P30556 whole entry): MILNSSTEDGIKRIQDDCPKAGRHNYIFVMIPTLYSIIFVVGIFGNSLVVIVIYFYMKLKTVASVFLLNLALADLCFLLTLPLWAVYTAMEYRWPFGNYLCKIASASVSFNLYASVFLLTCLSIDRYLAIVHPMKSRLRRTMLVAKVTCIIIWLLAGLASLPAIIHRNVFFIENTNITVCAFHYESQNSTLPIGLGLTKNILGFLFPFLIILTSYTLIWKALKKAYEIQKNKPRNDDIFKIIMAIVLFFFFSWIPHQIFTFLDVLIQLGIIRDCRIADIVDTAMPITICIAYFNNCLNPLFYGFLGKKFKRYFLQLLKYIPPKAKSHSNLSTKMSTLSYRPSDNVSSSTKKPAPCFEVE

[5] = luciferase reporter signal suppression in cells – H4 neuroglioma cells, luminescence, dose response (AID 1990); assay type: functional, cell-based
[6] = Luminescence Cell-Based Dose Response HTS to Identify Inhibitors of 5'UTR Stem-Loop Driven Prion Protein mRNA Translation in H4 Neuroglioblastoma Cells. [Related pubchem assays: 1827 (Project Summary), 1813 (Primary HTS)]; assay type: functional
[7] = biological target: T1, Beta-galactosidase; assay: detection-enzyme interference by beta-gal modulators – biochemical, E. coli enzyme, set 3, artefact control for CCR6 antagonist project, dose response (AID 504712); assay type: functional
[8] = alpha-synuclein stem-loop luciferase translation blockers – H4 neuroglioma cells, luminescence, confirmation (AID 1988); assay type: functional, cell-based
[9] = Luminescence Cell-Based Dose Retest to Confirm Inhibitors of Cancer Stem Cells. [Related pubchem assays (depositor defined):AID2717, AID2721]; assay type: functional; conditions: Homo sapiens
[10] = MIN6 cell viability loss – mouse insulinoma, cytotoxicity control, dose response (AID 2122); assay type: functional;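 further: confirmatory high-throughput counterscreen run to flag cytotoxic compounds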
[11] = decrease of insulin promoter-GFP reporter – imaging, high-content screening, mouse beta cells (AID 1628); assay type: functional; conditions: MIN6
[12] = system: HEK293; assay: NOD2 signaling inhibitors in MDP-stimulated cells, cell-based, uHTS, luminescence (AID 2001); assay type: functional; conditions: Homo sapiens
[13] = system: HEK293; assay: cells; assay type: functional, cell-based; conditions: Homo sapiens
[14] = system: HEK293; assay: inhibition of NOD1-driven NF-kB reporter – cell-based, luminescence, uHTS, primary screen (AID 1578); assay type: functional; conditions: Homo sapiens
[15] = system: HEK293; assay: cells; assay type: functional, cell-based; conditions: Homo sapiens; remark: listed apart in the source
[16] = biological target: Voltage-gated inwardly rectifying potassium channel KCNH2 (Homo sapiens, UniProt Q12809); conditions: Potency;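 further: confirmatory quantitative high-throughput screen measuring inhibition of hERG channel activity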
[17] = biological target: T3, Oxysterols receptor LXR-beta (Homo sapiens, UniProt P55055); assay type: functional, cell-based;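 further: Cell-based luminescence dose-response assay of agonist activity at LXR, run as a confirmatory counterscreen to a daf-12 agonist screen; HEK293 cells with Gal4-LXR fusion and GAL4-driven luciferase reporter; agonist potency from rising luciferase signal of a Gal4-LXR reporter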
T3 sequence (P55055 whole entry): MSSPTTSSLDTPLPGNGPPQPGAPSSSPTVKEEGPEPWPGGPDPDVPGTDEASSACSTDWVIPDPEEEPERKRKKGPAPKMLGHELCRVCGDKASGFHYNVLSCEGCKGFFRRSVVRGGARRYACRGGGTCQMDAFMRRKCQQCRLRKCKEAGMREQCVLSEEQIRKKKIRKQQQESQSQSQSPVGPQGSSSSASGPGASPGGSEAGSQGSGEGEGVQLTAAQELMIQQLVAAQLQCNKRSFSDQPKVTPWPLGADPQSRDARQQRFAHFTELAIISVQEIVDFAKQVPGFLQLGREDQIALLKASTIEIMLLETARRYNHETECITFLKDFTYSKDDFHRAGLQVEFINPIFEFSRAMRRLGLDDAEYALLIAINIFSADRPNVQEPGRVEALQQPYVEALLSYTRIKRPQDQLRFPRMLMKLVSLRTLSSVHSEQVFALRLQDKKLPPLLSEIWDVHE

[18] = fluconazole-exposed Candida albicans growth modulators – fluorescence, retest, confirmation (AID 2467); assay type: functional, cell-based
[19] = NIH-3T3 fibroblast cytotoxicity, dose response, cytotoxicity control, cell-based, fluorescence, Alamar Blue, secondary assay (AID 2327); assay type: functional;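 further: NIH-3T3 mouse fibroblasts cultured with fluconazole at 8 µg/mL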
[20] = cells

T1 sequence (Q8VNN2 whole entry): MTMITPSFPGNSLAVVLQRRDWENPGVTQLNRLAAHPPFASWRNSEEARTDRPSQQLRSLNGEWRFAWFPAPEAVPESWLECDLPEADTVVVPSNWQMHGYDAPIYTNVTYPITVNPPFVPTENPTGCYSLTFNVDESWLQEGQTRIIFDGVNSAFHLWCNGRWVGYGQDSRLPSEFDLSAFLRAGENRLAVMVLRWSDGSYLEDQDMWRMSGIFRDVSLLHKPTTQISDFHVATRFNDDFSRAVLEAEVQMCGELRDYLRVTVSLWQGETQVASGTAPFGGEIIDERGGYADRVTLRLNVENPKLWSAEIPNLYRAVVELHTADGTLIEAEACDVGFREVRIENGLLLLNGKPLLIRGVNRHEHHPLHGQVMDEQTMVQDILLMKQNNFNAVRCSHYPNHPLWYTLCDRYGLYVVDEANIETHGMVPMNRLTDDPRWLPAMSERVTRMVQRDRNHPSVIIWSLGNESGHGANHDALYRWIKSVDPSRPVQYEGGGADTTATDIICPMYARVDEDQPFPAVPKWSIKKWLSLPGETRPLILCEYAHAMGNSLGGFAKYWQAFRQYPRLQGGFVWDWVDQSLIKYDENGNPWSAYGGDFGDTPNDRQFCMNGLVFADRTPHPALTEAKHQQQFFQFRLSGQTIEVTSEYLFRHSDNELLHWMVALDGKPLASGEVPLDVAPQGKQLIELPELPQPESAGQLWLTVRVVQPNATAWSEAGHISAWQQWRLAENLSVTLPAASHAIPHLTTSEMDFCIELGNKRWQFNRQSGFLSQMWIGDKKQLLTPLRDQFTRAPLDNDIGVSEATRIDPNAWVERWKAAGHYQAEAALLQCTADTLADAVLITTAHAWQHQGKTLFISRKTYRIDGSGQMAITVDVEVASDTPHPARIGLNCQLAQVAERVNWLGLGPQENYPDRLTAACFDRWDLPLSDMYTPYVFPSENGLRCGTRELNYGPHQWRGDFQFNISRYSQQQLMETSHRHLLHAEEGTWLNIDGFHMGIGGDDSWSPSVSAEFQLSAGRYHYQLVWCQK
Chain of DNA dC->dU-editing enzyme APOBEC-3G (Q9HC16 whole entry): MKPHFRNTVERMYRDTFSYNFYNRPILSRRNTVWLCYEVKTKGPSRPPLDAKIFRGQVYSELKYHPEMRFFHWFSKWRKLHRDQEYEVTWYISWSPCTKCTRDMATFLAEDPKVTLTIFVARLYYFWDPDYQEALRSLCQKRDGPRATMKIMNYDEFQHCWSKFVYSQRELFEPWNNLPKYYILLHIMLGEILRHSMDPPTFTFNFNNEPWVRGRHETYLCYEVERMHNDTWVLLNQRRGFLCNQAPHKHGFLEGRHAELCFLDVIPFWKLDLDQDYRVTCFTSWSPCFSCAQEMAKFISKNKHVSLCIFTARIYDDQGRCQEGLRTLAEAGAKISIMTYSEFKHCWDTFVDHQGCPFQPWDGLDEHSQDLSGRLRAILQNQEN
Chain of DNA dC->dU-editing enzyme APOBEC-3A (P31941 whole entry): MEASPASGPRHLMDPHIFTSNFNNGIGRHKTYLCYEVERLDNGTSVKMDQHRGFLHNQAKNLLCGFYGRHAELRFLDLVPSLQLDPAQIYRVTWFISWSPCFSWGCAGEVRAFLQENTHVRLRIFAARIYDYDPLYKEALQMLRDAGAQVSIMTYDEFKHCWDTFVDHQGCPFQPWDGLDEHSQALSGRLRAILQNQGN
Chain of Voltage-gated inwardly rectifying potassium channel KCNH2 (Q12809 whole entry, the tested form may be a part): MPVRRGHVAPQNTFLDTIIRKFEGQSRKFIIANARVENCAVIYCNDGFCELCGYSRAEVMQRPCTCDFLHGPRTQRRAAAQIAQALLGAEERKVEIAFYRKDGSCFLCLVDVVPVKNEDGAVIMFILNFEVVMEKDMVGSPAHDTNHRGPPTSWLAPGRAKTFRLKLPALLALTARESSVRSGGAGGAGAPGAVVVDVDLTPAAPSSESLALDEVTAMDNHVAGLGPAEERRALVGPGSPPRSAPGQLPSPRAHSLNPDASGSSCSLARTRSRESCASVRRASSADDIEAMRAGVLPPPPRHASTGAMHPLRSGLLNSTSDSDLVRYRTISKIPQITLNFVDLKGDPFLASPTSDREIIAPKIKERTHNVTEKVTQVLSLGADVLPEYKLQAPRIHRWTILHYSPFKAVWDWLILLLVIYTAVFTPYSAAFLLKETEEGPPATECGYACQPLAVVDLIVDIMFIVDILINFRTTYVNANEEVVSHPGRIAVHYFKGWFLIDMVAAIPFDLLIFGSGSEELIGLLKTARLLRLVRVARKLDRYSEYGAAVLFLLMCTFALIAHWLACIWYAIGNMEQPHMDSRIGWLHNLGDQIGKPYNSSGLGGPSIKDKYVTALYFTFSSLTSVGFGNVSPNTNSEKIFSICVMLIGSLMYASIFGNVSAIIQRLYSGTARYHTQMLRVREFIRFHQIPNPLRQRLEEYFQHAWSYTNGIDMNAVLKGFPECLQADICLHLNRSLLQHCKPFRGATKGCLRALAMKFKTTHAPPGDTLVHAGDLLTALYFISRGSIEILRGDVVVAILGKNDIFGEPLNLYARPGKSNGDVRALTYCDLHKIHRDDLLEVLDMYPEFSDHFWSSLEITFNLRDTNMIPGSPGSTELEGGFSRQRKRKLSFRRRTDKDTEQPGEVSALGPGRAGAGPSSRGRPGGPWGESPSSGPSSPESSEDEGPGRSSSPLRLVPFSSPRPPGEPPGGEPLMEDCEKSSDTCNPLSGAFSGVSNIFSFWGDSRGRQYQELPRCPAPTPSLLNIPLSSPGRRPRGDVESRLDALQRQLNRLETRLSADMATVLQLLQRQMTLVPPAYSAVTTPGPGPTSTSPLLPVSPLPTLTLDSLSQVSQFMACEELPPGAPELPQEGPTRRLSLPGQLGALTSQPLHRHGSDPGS

In the case of `Cc1cc(-c2nnc(S)n2CC(C)C)cs1`, the IC50 [1] is reported as > 100 µM (inactive) and the IC50 [2] is reported as 5.87 µM (active).
In the case of `CC1=NC(Nc2nc(C)c3ccccc3n2)=NC(C)(C)C1`, the EC50 [3] is reported as > 40 µM (inactive) and the IC50 [4] is reported as 13 µM (active).
With `NC(=O)c1c(NC(=O)c2ccc([N+](=O)[O-])o2)sc2c1CCCC2` the EC50 [5] was 13.3 µM (active), the EC50 [6] was 47.5 µM (active) and the IC50 [7] was > 66.6 µM (inactive). The EC50 [8] was 7.76 µM (active).
For `Cc1ccc(-c2cc(-c3ccccc3)nc(NN)n2)cc1`, the EC50 [3] was > 40 µM (inactive), the AC50 [9] was 5.4 µM (active) and the IC50 [4] was 6.66 µM (active).
In the case of `N#Cc1ccccc1NC(=O)C1SC(Nc2ccccc2)=C(C(=O)Nc2ccc(Cl)cc2)C1=N` (stereo unspecified), the IC50 [10] is reported as 6.4 µM (active) and the IC50 [11] is reported as 8.77 µM (active).
With `Nc1ccc(S(=O)(=O)Nc2nccc(/C=C/c3cccc(Br)c3)n2)cc1` the IC50 [12] was 7.62 µM (active), the IC50 [13] was 12.8 µM (active) and the EC50 [14] was 8.24 µM (active). For the same molecule, the IC50 [15] was > 20 µM (inactive).
For `COC(=O)C(C)Sc1nnc(S)s1` (stereo unspecified), the IC50 [1] was > 100 µM (inactive) and the IC50 [2] was 15.8 µM (active).
In the case of `CC(C)CCn1c(N)c(C(=O)OCC2CCCO2)c2nc3ccccc3nc21` (stereo unspecified), the EC50 [3] is reported as > 40 µM (inactive) and the IC50 [4] is reported as > 40 µM (not active).
In the case of `C=CCOC(=O)CCCCCCCC`, the AC50 [16] is reported as 79.4 µM (inconclusive).
With `COc1ccc(-c2csc(-c3ccccc3)n2)c(OC)c1` the EC50 [17] was > 67.5 µM (inactive), the EC50 [18] was 6.64 µM (active) and the EC50 [19] was > 160 µM (inactive). The EC50 [20] was > 67.5 µM (inactive).
